Measurements taken from US20250042879A1, “HETEROCYCLIC SUBSTITUTED 1,3,4-THIADIAZOLE AND PYRIDAZINE COMPOUNDS AND METHODS OF USING THE SAME” (Rgenta Therapeutics, Inc., priority 2021, published 2025).

System: HTT
Assay: Mini-gene reporter assay-HTT (firefly luciferase, exon inclusion)
Format: cell-based
Conditions: for Emax at 5 µM: HTT Minigene, read-out: % Efficacy at 5 μM; for EC50: Homo sapiens, HTT mini-gene firefly luciferase reporter transiently transfected into HEK293 cells
From the text: Mini-gene reporter constructs for each target site were constructed by first PCR amplifying the region-of-interest including the sequence of the alternatively skipped, sequences of the immediate upstream and downstream introns, and sequences of the immediate upstream and downstream exons. Then the 3′end of the amplified sequence was ligated to a firefly luciferase reporter gene and cloned into the pcDNA3.1 vector backbone. The final reporter construct was transiently transfected into HEK293 cells using Lipofectamine 3000 transfection reagents. Compounds that can induce the inclusion of the skipped exon in the reporter construct would increase the reporter firefly luciferase activity.
Test compounds were diluted in duplicates and dispensed into an assay plate. Transient mini-gene reporter cell line stock was resuspended and dispensed into the assay plate. Assay plates were then centrifuged and incubated. A luciferase reagent (e.g. ONE-Glo firefly luciferase reagent from Promega®) was added to the assay plate and the luminescence (RLU) signals recorded. EC50 values were determined by curve fitting in Levenberg-Marquardt algorithm.

Row | SMILES | Emax at 5 µM [%] | EC50 [nM]
1 | COc1cc(-c2ccc(-c3ccc(C4CN(C(C)Cc5cnccn5)C4)nn3)c(O)c2)cc2cn(C)nc12 (stereo not shown) [Compound 173] | 25 to 75 | 
2 | COc1ccc(CN2CC(c3ccc(-c4ccc(-c5cc(OC)c6nn(C)cc6c5)cc4O)nn3)C2)cn1 [Compound 153] | < 25 | 
3 | Cc1cn2cc(-c3ccc(-c4ccc(C5CN(Cc6c[nH]nc6C)C5)nn4)c(O)c3)cc(F)c2n1 [Compound 73] | > 750 | 
4 | CCN1CC(c2ccc(-c3ccc(-c4cc(C)c5nn(C)cc5n4)cc3O)nn2)C1 [Compound 62, 5-{2,7-dimethyl-2H-pyrazolo[4,3-b]pyridin-5-yl}-2-[6-(1-ethylazetidin-3-yl)pyridazin-3-yl]phenol] |  | 500 to 1000
5 | Cc1cn2cc(-c3ccc(-c4ccc(C5CN(Cc6c(C)n[nH]c6C)C5)nn4)c(O)c3)cc(F)c2n1 [Compound 74] | 25 to 75 | 
6 | COc1cc(-c2ccc(-c3ccc(C4CN(Cc5csnn5)C4)nn3)c(O)c2)cc2cn(C)nc12 [Compound 140] | < 25 | 
7 | COc1cc(-c2ccc(-c3ccc(C4CN(C5CC(C)OC5C)C4)nn3)c(O)c2)cc2cn(C)nc12 (stereo not shown) [Compound 177] | 25 to 75 | 
8 | COc1cc(-c2ccc(-c3ccc(C4CN(C5CCN(C6CC6)CC5)C4)nn3)c(O)c2)cc2cn(C)nc12 [Compound 134] | < 25 | 
9 | COCC(C)N1CC(c2ccc(-c3ccc(-c4cc(OC)c5nn(C)cc5c4)cc3O)nn2)C1 (stereo not shown) [Compound 143] | > 750 | 
10 | Cc1cn2cc(-c3ccc(-c4ccc(C5CNC5)nn4)c(O)c3)cc(C(F)(F)F)c2n1 [Compound 5, 2-[6-(azetidin-3-yl)pyridazin-3-yl]-5-[2-methyl-8-(trifluoromethyl)imidazo[1,2-a]pyridin-6-yl]phenol] |  | 50 to 500
11 | Cc1cn2cc(-c3ccc(-c4ccc(C5CN(C)C5)nn4)c(O)c3)cc(C)c2n1 [Compound 35, 5-{2,8-dimethylimidazo[1,2-a]pyridin-6-yl}-2-[6-(1-methylazetidin-3-yl)pyridazin-3-yl]phenol] |  | 500 to 1000
12 | Cc1cn2nc(-c3ccc(-c4ccc(C5CNC5)nn4)c(O)c3)ccc2n1 [Compound 31, 2-[6-(azetidin-3-yl)pyridazin-3-yl]-5-{2-methylimidazo[1,2-b]pyridazin-6-yl}phenol] |  | 500 to 1000
13 | Cc1cn2nc(-c3ccc(-c4ccc(C5CN(C)C5)nn4)c(O)c3)ccc2n1 [Compound 37, 2-[6-(1-methylazetidin-3-yl)pyridazin-3-yl]-5-{2-methylimidazo[1,2-b]pyridazin-6-yl}phenol] |  | 50 to 500
14 | Cc1cn2cc(-c3ccc(-c4ccc(C5CN(C6CCCOCC6)C5)nn4)c(O)c3)cc(F)c2n1 (stereo not shown) [Compound 99] | > 750 | 
15 | Cc1cc(-c2ccc(-c3ccc(C4CN(C5CCOCC5)C4)nn3)c(O)c2)nc2cn(C)nc12 [Compound 61, 5-{2,7-dimethyl-2H-pyrazolo[4,3-b]pyridin-5-yl}-2-{6-[1-(oxan-4-yl)azetidin-3-yl]pyridazin-3-yl}phenol] |  | ≥ 1000
16 | COc1cc(-c2ccc(-c3ccc(C4CN(C5CCC(OC)CC5)C4)nn3)c(O)c2)cc2cn(C)nc12 (stereo not shown) [Compound 144] | > 750 | 
17 | Cc1cn2cc(-c3ccc(-c4ccc(C5CN(C(C)C6CCCO6)C5)nn4)c(O)c3)cc(F)c2n1 (stereo not shown) [Compound 95] | > 750 | 
18 | COc1cc(-c2ccc(-c3ccc(C4CN(Cc5c(C)nn(C)c5C)C4)nn3)c(O)c2)cc2cn(C)nc12 [Compound 133] | < 25 | 
19 | Cc1cn2cc(-c3ccc(-c4ccc(C5CN(Cc6conc6C)C5)nn4)c(O)c3)cc(F)c2n1 [Compound 114] | < 25 | 
20 | Cc1cn2cc(-c3ccc(-c4ccc(C5CN(Cc6cnco6)C5)nn4)c(O)c3)cc(F)c2n1 [Compound 90] | 25 to 75 | 
21 | Cc1cn2cc(-c3ccc(-c4ccc(C5CN(CC6CC6C)C5)nn4)c(O)c3)cc(F)c2n1 (stereo not shown) [Compound 105] | > 750 | 
22 | CCc1cc(-c2ccc(-c3ccc(C4CN(CC)C4)nn3)c(O)c2)nc2cn(C)nc12 [Compound 60, 5-{7-ethyl-2-methyl-2H-pyrazolo[4,3-b]pyridin-5-yl}-2-[6-(1-ethylazetidin-3-yl)pyridazin-3-yl]phenol] |  | ≥ 1000
